Data: PubChem BioAssay AID651981 (The Scripps Research Institute Molecular Screening Center, 2013)
Calls of active or inactive are those of the source. The rule behind the calls is not given here.

Assays:
Experiment in all cases: PubChem AID 651981
[1] = test system: AADACL1; details: BW5147 mouse T-cell proteome, ABPP-SILAC LC-MS ratio, at 1 µM, active compounds read low
[2] = test system: ABHD12; details: BW5147 mouse T-cell proteome, ABPP-SILAC LC-MS ratio, at 1 µM, active compounds read low
[3] = test system: ACOT1; details: BW5147 mouse T-cell proteome, ABPP-SILAC LC-MS ratio, at 1 µM, active compounds read low
[4] = test system: ACOT2; details: BW5147 mouse T-cell proteome, ABPP-SILAC LC-MS ratio, at 1 µM, active compounds read low
[5] = test system: APEH; details: BW5147 mouse T-cell proteome, ABPP-SILAC LC-MS ratio, at 1 µM, active compounds read low
[6] = target: Acyl-protein thioesterase 1 (Mus musculus) (UniProt P97823); details: BW5147 mouse T-cell proteome, ABPP-SILAC LC-MS ratio; LYPLA1; at 1 µM; active compounds read low
Acyl-protein thioesterase 1 (Mus musculus), sequence (P97823 whole entry, looked up): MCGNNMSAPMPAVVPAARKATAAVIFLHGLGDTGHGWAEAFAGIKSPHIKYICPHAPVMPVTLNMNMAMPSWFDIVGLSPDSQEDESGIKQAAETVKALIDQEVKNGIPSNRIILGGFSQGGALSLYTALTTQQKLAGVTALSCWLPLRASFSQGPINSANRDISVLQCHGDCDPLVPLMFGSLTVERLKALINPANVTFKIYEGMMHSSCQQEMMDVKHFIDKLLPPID

[7] = test system: DPP4; details: BW5147 mouse T-cell proteome, ABPP-SILAC LC-MS ratio, at 1 µM, active compounds read low
[8] = test system: DPP8; details: BW5147 mouse T-cell proteome, ABPP-SILAC LC-MS ratio, at 1 µM, active compounds read low
[9] = test system: DPP9; details: BW5147 mouse T-cell proteome, ABPP-SILAC LC-MS ratio, at 1 µM, active compounds read low
[10] = test system: ESD; details: BW5147 mouse T-cell proteome, ABPP-SILAC LC-MS ratio, at 1 µM, active compounds read low
[11] = test system: FAAH; details: BW5147 mouse T-cell proteome, ABPP-SILAC LC-MS ratio, at 1 µM, active compounds read low
[12] = test system: FASN; details: BW5147 mouse T-cell proteome, ABPP-SILAC LC-MS ratio, at 1 µM, active compounds read low
[13] = test system: LIPE; details: BW5147 mouse T-cell proteome, ABPP-SILAC LC-MS ratio, at 1 µM, active compounds read low
[14] = test system: LYPLA2; details: BW5147 mouse T-cell proteome, ABPP-SILAC LC-MS ratio, at 1 µM, active compounds read low
[15] = target: Monoacylglycerol lipase ABHD6 (Mus musculus) (UniProt Q8R2Y0); details: BW5147 mouse T-cell proteome, ABPP-SILAC LC-MS ratio, at 1 µM, active compounds read low
Monoacylglycerol lipase ABHD6 (Mus musculus), sequence (Q8R2Y0 whole entry, looked up): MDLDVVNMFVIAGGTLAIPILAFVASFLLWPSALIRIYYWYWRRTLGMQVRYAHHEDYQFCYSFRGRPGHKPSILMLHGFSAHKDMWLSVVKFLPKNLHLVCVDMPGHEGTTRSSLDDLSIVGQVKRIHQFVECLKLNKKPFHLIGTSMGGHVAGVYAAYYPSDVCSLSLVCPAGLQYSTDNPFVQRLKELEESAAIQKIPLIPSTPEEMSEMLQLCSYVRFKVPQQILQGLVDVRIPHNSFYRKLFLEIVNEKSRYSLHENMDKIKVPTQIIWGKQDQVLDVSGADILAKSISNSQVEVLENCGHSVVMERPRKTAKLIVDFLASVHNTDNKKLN

[16] = test system: PAFAH1B2; details: BW5147 mouse T-cell proteome, ABPP-SILAC LC-MS ratio, at 1 µM, active compounds read low
[17] = test system: PAFAH1B3; details: BW5147 mouse T-cell proteome, ABPP-SILAC LC-MS ratio, at 1 µM, active compounds read low
[18] = test system: PNPLA6; details: BW5147 mouse T-cell proteome, ABPP-SILAC LC-MS ratio, at 1 µM, active compounds read low
[19] = test system: PNPLA7; details: BW5147 mouse T-cell proteome, ABPP-SILAC LC-MS ratio, at 1 µM, active compounds read low
[20] = test system: PPME1; details: BW5147 mouse T-cell proteome, ABPP-SILAC LC-MS ratio, at 1 µM, active compounds read low
[21] = test system: PRCP; details: BW5147 mouse T-cell proteome, ABPP-SILAC LC-MS ratio, at 1 µM, active compounds read low
[22] = target: Platelet-activating factor acetylhydrolase 2, cytoplasmic (Mus musculus) (UniProt Q8VDG7); details: BW5147 mouse T-cell proteome, ABPP-SILAC LC-MS ratio; PAFAH2; at 1 µM; active compounds read low
Platelet-activating factor acetylhydrolase 2, cytoplasmic (Mus musculus), sequence (Q8VDG7 whole entry, looked up): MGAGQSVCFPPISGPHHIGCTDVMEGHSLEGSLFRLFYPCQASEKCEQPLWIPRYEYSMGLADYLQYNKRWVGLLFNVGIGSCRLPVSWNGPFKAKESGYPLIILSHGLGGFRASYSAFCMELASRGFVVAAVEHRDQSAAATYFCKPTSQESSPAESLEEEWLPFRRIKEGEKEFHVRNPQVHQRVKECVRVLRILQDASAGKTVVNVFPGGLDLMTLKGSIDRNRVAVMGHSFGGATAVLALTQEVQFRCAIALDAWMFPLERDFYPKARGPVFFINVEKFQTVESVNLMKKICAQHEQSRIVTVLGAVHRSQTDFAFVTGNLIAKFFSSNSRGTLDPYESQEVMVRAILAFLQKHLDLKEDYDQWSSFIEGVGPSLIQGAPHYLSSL

[23] = target: Prolyl endopeptidase (Mus musculus) (UniProt Q9QUR6); details: BW5147 mouse T-cell proteome, ABPP-SILAC LC-MS ratio; PREP; at 1 µM; active compounds read low
Prolyl endopeptidase (Mus musculus), sequence (Q9QUR6 whole entry, looked up): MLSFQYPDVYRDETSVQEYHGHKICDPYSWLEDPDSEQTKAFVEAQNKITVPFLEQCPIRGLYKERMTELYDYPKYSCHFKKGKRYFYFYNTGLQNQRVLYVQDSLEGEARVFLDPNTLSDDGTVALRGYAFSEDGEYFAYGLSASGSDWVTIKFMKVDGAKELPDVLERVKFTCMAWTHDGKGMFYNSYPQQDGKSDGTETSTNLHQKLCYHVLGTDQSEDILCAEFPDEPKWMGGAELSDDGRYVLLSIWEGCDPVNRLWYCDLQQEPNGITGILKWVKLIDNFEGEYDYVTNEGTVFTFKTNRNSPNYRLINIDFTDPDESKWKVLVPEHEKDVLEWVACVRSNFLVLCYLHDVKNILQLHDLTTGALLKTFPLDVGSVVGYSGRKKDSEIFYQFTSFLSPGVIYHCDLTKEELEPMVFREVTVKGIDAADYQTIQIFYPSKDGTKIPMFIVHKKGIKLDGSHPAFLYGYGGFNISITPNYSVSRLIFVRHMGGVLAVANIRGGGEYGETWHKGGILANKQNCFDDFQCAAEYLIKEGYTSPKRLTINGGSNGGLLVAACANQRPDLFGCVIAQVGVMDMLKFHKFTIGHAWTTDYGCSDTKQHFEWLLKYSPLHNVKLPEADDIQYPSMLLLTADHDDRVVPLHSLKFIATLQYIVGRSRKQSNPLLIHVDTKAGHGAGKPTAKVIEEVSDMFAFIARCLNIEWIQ

[24] = test system: SEC23IP; details: BW5147 mouse T-cell proteome, ABPP-SILAC LC-MS ratio, at 1 µM, active compounds read low
[25] = test system: TPP2; details: BW5147 mouse T-cell proteome, ABPP-SILAC LC-MS ratio, at 1 µM, active compounds read low

For `COc1ccc(N2CCN(C(=O)c3cc4c(s3)-c3ccccc3S(=O)(=O)C4)CC2)cc1`, the remaining activity ratio (inhibitor/DMSO) [1] was 1.46 (inactive), the remaining activity ratio (inhibitor/DMSO) [2] was 1.21 (inactive) and the remaining activity ratio (inhibitor/DMSO) [3] was 1.23 (inactive). The remaining activity ratio (inhibitor/DMSO) [4] was 1.25 (inactive), the remaining activity ratio (inhibitor/DMSO) [5] was 1.11 (inactive) and the remaining activity ratio (inhibitor/DMSO) [6] was 1.08 (inactive). The remaining activity ratio (inhibitor/DMSO) [7] was 1.17 (inactive), the remaining activity ratio (inhibitor/DMSO) [8] was 1.1 (inactive) and the remaining activity ratio (inhibitor/DMSO) [9] was 1.12 (inactive). The remaining activity ratio (inhibitor/DMSO) [10] was 1.24 (inactive), the remaining activity ratio (inhibitor/DMSO) [11] was 1.25 (inactive) and the remaining activity ratio (inhibitor/DMSO) [12] was 1.14 (inactive). The remaining activity ratio (inhibitor/DMSO) [13] was 0.88 (inactive), the remaining activity ratio (inhibitor/DMSO) [14] was 0.01 and the remaining activity ratio (inhibitor/DMSO) [15] was 1.06 (inactive). For the same compound, the remaining activity ratio (inhibitor/DMSO) [16] was 1.23 (inactive), the remaining activity ratio (inhibitor/DMSO) [17] was 1.09 (inactive) and the remaining activity ratio (inhibitor/DMSO) [18] was 1.03 (inactive). For the same compound, the remaining activity ratio (inhibitor/DMSO) [19] was 1.12 (inactive), the remaining activity ratio (inhibitor/DMSO) [20] was 1.34 (inactive) and the remaining activity ratio (inhibitor/DMSO) [21] was 1.56 (inactive). The remaining activity ratio (inhibitor/DMSO) [22] was 1.14 (inactive), the remaining activity ratio (inhibitor/DMSO) [23] was 1.12 (inactive) and the remaining activity ratio (inhibitor/DMSO) [24] was 1.53 (inactive). The remaining activity ratio (inhibitor/DMSO) [25] was 1.2 (inactive).
